In PMC12503276, “A novel TRPV5/6-like channel from a scleractinian coral” (PLOS One, 2025):

Key:
hTRPV5 = target: T1, hTRPV5 (Homo sapiens, UniProt Q9NQA5); assay: outside-out patch clamp, HEK293; format: cell-based
T1 construct: gene TRPV5; EGFP on separate plasmid; tetramer

PdTRPV5/6-like = target: T2, PdTRPV5/6-like (Pocillopora damicornis, UniProt Z9K305B7A5); assay: outside-out patch clamp, HEK293; format: cell-based
T2 construct: full-length ORF, 724 residues, cloned from aquarium coral cDNA into pcDNA3.1, HEK293 transient expression; EGFP on separate plasmid; tetramer
T2 sequence (Z9K305B7A5 1-724): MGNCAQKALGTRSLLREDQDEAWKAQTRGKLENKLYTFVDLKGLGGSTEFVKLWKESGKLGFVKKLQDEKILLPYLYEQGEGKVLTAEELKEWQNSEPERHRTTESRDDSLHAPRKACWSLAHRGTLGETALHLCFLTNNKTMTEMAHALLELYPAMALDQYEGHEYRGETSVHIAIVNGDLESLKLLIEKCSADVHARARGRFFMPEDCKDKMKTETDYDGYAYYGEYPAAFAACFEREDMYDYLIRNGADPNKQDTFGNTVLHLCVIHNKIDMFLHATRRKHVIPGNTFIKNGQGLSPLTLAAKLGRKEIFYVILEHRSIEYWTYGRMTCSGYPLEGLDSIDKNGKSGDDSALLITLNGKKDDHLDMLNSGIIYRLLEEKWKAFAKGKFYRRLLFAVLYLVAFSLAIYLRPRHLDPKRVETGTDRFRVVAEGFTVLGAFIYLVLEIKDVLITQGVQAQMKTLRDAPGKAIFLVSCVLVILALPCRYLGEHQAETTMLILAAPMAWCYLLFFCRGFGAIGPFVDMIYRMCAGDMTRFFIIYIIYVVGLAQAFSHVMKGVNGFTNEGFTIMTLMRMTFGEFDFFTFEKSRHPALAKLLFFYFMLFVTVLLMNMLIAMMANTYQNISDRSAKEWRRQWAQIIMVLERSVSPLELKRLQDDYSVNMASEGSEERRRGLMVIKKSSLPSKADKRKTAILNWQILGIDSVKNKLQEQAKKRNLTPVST

T1 sequence (Q9NQA5 whole entry): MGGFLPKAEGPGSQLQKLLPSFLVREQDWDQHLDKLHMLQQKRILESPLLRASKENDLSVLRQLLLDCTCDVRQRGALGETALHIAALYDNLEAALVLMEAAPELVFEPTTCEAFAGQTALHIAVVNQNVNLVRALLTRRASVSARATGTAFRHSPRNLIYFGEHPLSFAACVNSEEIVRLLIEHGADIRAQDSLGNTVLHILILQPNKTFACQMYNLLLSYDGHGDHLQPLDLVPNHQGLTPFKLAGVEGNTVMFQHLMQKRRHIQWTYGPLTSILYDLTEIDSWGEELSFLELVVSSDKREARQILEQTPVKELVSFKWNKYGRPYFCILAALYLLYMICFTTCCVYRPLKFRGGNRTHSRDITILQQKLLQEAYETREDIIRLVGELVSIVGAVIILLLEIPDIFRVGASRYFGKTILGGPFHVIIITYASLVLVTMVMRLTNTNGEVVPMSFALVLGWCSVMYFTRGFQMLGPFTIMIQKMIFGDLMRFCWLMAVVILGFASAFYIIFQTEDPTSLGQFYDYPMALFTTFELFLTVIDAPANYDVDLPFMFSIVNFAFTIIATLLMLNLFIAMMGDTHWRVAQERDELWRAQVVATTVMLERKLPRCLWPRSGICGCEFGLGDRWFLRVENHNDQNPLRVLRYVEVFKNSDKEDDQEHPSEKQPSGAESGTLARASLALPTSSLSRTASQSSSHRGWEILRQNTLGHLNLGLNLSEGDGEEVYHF

Row | Structure (SMILES) | IC50 (hTRPV5) | IC50 (PdTRPV5/6-like)
1 | Clc1ccc(COC(Cn2ccnc2)c2ccc(Cl)cc2Cl)c(Cl)c1 (centres unmarked) [miconazole] | 0.0512 µM | 
2 | CC(C)[C@@H]1CC[C@@H](C)C[C@H]1O [(-)-menthol] |  | 120 µM
